Measured values published in US9120791B2, “Indolizine compounds, a process for their preparation and pharmaceutical compositions containing them” (LES LABORATOIRES SERVIER, priority 2012, dated 2015).
Where a name gives a salt, the structure may show the parent alone. Read-outs that look alike come from different tables or passages of the source.

Experiments:
[1] = target: Bcl-2 protein (Homo sapiens (Human), UniProt P10415); assay: Inhibition of Bcl-2 by the fluorescence polarisation technique; format: binding; conditions: fluorescence polarisation test; concentration that inhibits fluorescence polarisation by 50%; read-out: IC50 (nM) Bcl-2 FP
Procedure: The fluorescence polarisation tests were carried out on microplates (384 wells). […] After incubation for 2 hours, the fluorescence polarisation is measured.

[2] = tested on: RS4;11 leukaemia tumour line; assay: In vitro cytotoxicity (Microculture Tetrazolium Assay, 48 hours); format: cell-based; conditions: RS4;11 cells, 48 hours exposure, MTT, concentration that inhibits cell viability by 50%, read-out: IC50 (nM) MTT RS4
Procedure: The cytotoxicity studies were carried out on the RS4;11 leukaemia tumour line.
The cells are distributed onto microplates and exposed to the test compounds for 48 hours.

Sequence of Bcl-2 protein (P10415 whole entry): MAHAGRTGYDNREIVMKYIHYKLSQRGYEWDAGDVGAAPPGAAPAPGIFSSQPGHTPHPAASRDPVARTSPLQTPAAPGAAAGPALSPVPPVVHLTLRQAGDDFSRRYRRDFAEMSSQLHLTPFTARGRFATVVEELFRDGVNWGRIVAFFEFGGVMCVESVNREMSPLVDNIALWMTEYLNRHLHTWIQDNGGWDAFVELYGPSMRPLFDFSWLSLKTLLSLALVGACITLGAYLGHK

Compound	IC50 [1] [nM]	IC50 ([2]; Homo sapiens) [nM]	IC50 [2] [nM]
O=C(c1cc(-c2cc(Cl)ccc2C(=O)N2Cc3ccccc3C[C@H]2CN2CCOCC2)n2c1CCCC2)N(c1ccc(O)cc1)c1ccc(F)cc1 [Example 111, 3-(5-Chloro-2-{[(3S)-3-(morpholin-4-ylmethyl)-3,4-dihydroisoquinolin-2(1H)-yl]carbonyl}phenyl)-N-(4-fluorophenyl)-N-(4-hydroxyphenyl)-5,6,7,8-tetrahydroindolizine-1-carboxamide hydrochloride]	15	81.5	
COc1ccc(C(=O)N2Cc3ccccc3C[C@H]2CN2CCOCC2)c(-c2cc(C(=O)N(c3ccccc3)c3ccc(O)cc3)c3n2CCCC3)c1 [Example 112, N-(4-Hydroxyphenyl)-3-(5-methoxy-2-{[(3S)-3-(morpholin-4-ylmethyl)-3,4-dihydroisoquinolin-2(1H)-yl]carbonyl}phenyl)-N-phenyl-5,6,7,8-tetrahydroindolizine-1-carboxamide hydrochloride]	9	139	
O=C(c1cc(-c2cc3c(cc2C(=O)N2Cc4ccccc4C[C@H]2CN2CCOCC2)OCO3)n2c1CC(O)CC2)N(c1ccccc1)c1ccc(O)cc1 (stereo partly drawn) [Example 113, 7-Hydroxy-N-(4-hydroxyphenyl)-3-(6-{[(3S)-3-(morpholin-4-ylmethyl)-3,4-dihydroisoquinolin-2(1H)-yl]carbonyl}-1,3-benzodioxol-5-yl)-N-phenyl-5,6,7,8-tetrahydroindolizine-1-carboxamide hydrochloride]	16	190	
COc1ccc(C(=O)N2Cc3ccccc3C[C@H]2CN2CCOCC2)c(-c2cc(C(=O)N(c3ccc(O)cc3)c3ccc(C)c(F)c3)c3n2CCCC3)c1 [Example 114, N-(3-Fluoro-4-methylphenyl)-N-(4-hydroxyphenyl)-3-(5-methoxy-2-{[(3S)-3-(morpholin-4-ylmethyl)-3,4-dihydroisoquinolin-2(1H)-yl]carbonyl}phenyl)-5,6,7,8-tetrahydroindolizine-1-carboxamide hydrochloride]	9	43.1	
O=C(c1cc(-c2cc(Cl)ccc2C(=O)N2Cc3ccccc3C[C@H]2CN2CCOCC2)n2c1CCCC2)N(c1ccc(O)cc1)c1ccccc1F [Example 115, 3-(5-Chloro-2-{[(3S)-3-(morpholin-4-ylmethyl)-3,4-dihydroisoquinolin-2(1H)-yl]carbonyl}phenyl)-N-(2-fluorophenyl)-N-(4-hydroxyphenyl)-5,6,7,8-tetrahydroindolizine-1-carboxamide hydrochloride]	8	58.1	
O=C(c1cc(-c2cc(Cl)ccc2C(=O)N2Cc3ccccc3C[C@H]2CN2CCOCC2)n2c1CCCC2)N(c1ccc(O)cc1)c1cccc(F)c1 [Example 116, 3-(5-Chloro-2-{[(3S)-3-(morpholin-4-ylmethyl)-3,4-dihydroisoquinolin-2(1H)-yl]carbonyl}phenyl)-N-(3-fluorophenyl)-N-(4-hydroxyphenyl)-5,6,7,8-tetrahydroindolizine-1-carboxamide hydrochloride]	10	43.6	
O=C(c1cc(-c2cc(Cl)ccc2C(=O)N2Cc3ccccc3C[C@H]2CN2CCOCC2)n2c1CCCC2)N(c1ccc(O)cc1)c1ccc(F)cc1F [Example 117, 3-(5-Chloro-2-{[(3S)-3-(morpholin-4-ylmethyl)-3,4-dihydroisoquinolin-2(1H)-yl]carbonyl}phenyl)-N-(2,4-difluorophenyl)-N-(4-hydroxyphenyl)-5,6,7,8-tetrahydroindolizine-1-carboxamide hydrochloride]	15	194	
O=C(c1cc(-c2cc(Cl)ccc2C(=O)N2Cc3ccccc3C[C@H]2CN2CCOCC2)n2c1CCCC2)N(c1ccc(O)cc1)c1ccc(F)c(F)c1 [Example 118, 3-(5-Chloro-2-{[(3S)-3-(morpholin-4-ylmethyl)-3,4-dihydroisoquinolin-2(1H)-yl]carbonyl}phenyl)-N-(3,4-difluorophenyl)-N-(4-hydroxyphenyl)-5,6,7,8-tetrahydroindolizine-1-carboxamide hydrochloride]	15	71	
N#Cc1cccc(N(C(=O)c2cc(-c3cc(Cl)ccc3C(=O)N3Cc4ccccc4C[C@H]3CN3CCOCC3)n3c2CCCC3)c2ccc(O)cc2)c1 [Example 119, 3-(5-Chloro-2-{[(3S)-3-(morpholin-4-ylmethyl)-3,4-dihydroisoquinolin-2(1H)-yl]carbonyl}phenyl)-N-(3-cyanophenyl)-N-(4-hydroxyphenyl)-5,6,7,8-tetrahydroindolizine-1-carboxamide hydrochloride]	9	31.6	
CS(=O)(=O)N1CCN(C[C@@H]2Cc3ccccc3CN2C(=O)c2cc3c(cc2-c2cc(C(=O)N(c4ccccc4)c4ccc(O)cc4)c4n2CCCC4)OCO3)CC1 [Example 123, N-(4-Hydroxyphenyl)-3-(6-{[(3S)-3-{[4-(methylsulphonyl)piperazin-1-yl]methyl}-3,4-dihydroisoquinolin-2(1H)-yl]carbonyl}-1,3-benzodioxol-5-yl)-N-phenyl-5,6,7,8-tetrahydroindolizine-1-carboxamide hydrochloride]	22	92.1	
COc1cccc(N(C(=O)c2cc(-c3cc(Cl)ccc3C(=O)N3Cc4ccccc4C[C@H]3CN3CCOCC3)n3c2CCCC3)c2ccc(O)cc2)c1 [Example 124, 3-(5-Chloro-2-{[(3S)-3-(morpholin-4-ylmethyl)-3,4-dihydroisoquinolin-2(1H)-yl]carbonyl}phenyl)-N-(4-hydroxyphenyl)-N-(3-methoxyphenyl)-5,6,7,8-tetrahydroindolizine-1-carboxamide hydrochloride]	28	101	
O=C(c1cc(-c2cc(Cl)ccc2C(=O)N2Cc3ccccc3C[C@H]2CN2CCOCC2)n2c1CCCC2)N(c1ccc(O)cc1)c1cc(F)cc(F)c1 [Example 125, 3-(5-Chloro-2-{[(3S)-3-(morpholin-4-ylmethyl)-3,4-dihydroisoquinolin-2(1H)-yl]carbonyl}phenyl)-N-(3,5-difluorophenyl)-N-(4-hydroxyphenyl)-5,6,7,8-tetrahydroindolizine-1-carboxamide hydrochloride]	38	81.8	
Cc1cccc(N(C(=O)c2cc(-c3cc(Cl)ccc3C(=O)N3Cc4ccccc4C[C@H]3CN3CCOCC3)n3c2CCCC3)c2ccc(O)cc2)c1 [Example 126, 3-(5-Chloro-2-{[(3S)-3-(morpholin-4-ylmethyl)-3,4-dihydroisoquinolin-2(1H)-yl]carbonyl}phenyl)-N-(4-hydroxyphenyl)-N-(3-methylphenyl)-5,6,7,8-tetrahydroindolizine-1-carboxamide hydrochloride]	26	115	
O=C(c1cc(-c2cc3c(cc2C(=O)N2Cc4ccccc4C[C@H]2CN2CCN(CC(F)(F)F)CC2)OCO3)n2c1CCCC2)N(c1ccccc1)c1ccc(O)cc1 [Example 127, N-(4-Hydroxyphenyl)-N-phenyl-3-(6-{[(3S)-3-{[4-(2,2,2-trifluoroethyl)-piperazin-1-yl]methyl}-3,4-dihydroisoquinolin-2(1H)-yl]carbonyl}-1,3-benzodioxol-5-yl)-5,6,7,8-tetrahydroindolizine-1-carboxamide hydrochloride]	26	129	
CN1CCN(C[C@@H]2Cc3ccccc3CN2C(=O)c2cc3c(cc2-c2cc(C(=O)N(c4ccccc4)c4ccc(O)cc4)c4n2CCCC4)OCO3)CC1=O [Example 128, N-(4-Hydroxyphenyl)-3-(6-{[(3S)-3-[(4-methyl-3-oxopiperazin-1-yl)methyl]-3,4-dihydroisoquinolin-2(1H)-yl]carbonyl}-1,3-benzodioxol-5-yl)-N-phenyl-5,6,7,8-tetrahydroindolizine-1-carboxamide hydrochloride]	10	63.4	
N#Cc1ccc(N(C(=O)c2cc(-c3cc(Cl)ccc3C(=O)N3Cc4ccccc4C[C@H]3CN3CCOCC3)n3c2CCCC3)c2ccc(O)cc2)cc1 [Example 129, 3-(5-Chloro-2-{[(3S)-3-(morpholin-4-ylmethyl)-3,4-dihydroisoquinolin-2(1H)-yl]carbonyl}phenyl)-N-(4-cyanophenyl)-N-(4-hydroxyphenyl)-5,6,7,8-tetrahydroindolizine-1-carboxamide hydrochloride]	9	46.7	
O=C(c1cc(-c2cc(Cl)ccc2C(=O)N2Cc3ccccc3C[C@H]2CN2CCOCC2)n2c1CCCC2)N(c1ccc(O)cc1)c1cccc(Cl)c1 [Example 131, 3-(5-Chloro-2-{[(3S)-3-(morpholin-4-ylmethyl)-3,4-dihydroisoquinolin-2(1H)-yl]carbonyl}phenyl)-N-(3-chlorophenyl)-N-(4-hydroxyphenyl)-5,6,7,8-tetrahydroindolizine-1-carboxamide hydrochloride]	30	88.4	
N#Cc1ccccc1N(C(=O)c1cc(-c2cc(Cl)ccc2C(=O)N2Cc3ccccc3C[C@H]2CN2CCOCC2)n2c1CCCC2)c1ccc(O)cc1 [Example 134, 3-(5-Chloro-2-{[(3S)-3-(morpholin-4-ylmethyl)-3,4-dihydroisoquinolin-2(1H)-yl]carbonyl}phenyl)-N-(2-cyanophenyl)-N-(4-hydroxyphenyl)-5,6,7,8-tetrahydroindolizine-1-carboxamide hydrochloride]	37	305	
Tert-butyl 8-{[4-hydroxy(1-methyl-1H-indol-5-yl)anilino]carbonyl}-6-{6-[((3S)-3-(4-morpholinylmethyl)-3,4-dihydro-2(1H)-isoquinolinyl)carbonyl]-1,3-benzodioxol-5-yl}-3,4-dihydropyrrolo[1,2-a]pyrazine-2(1H)-carboxylate [Example 72]	220		270
